Each structure is given as a SMILES string. Bounds are passed on as bounds.

Here are results for 23 compounds from ChEMBL document CHEMBL1687705, “Design, Synthesis, and in Vitro Evaluation of Novel Aminomethyl-pyridines as DPP-4 Inhibitors” (ACS Med Chem Lett, 2010).

The target in one assay is Dipeptidyl peptidase 4 (Homo sapiens, UniProt P27487). Description: Inhibition of human recombinant DPP4 assessed as Gly-Pro-pNA chromogenic substrate cleavage for 16 mins preincubated with compound for 10 mins before addition of chromogenic substrate.
Assay [1] relates to HeLa. Nature of the assay: Cytotoxicity against human HeLa cells at 10 uM. It counts as functional, cell-based.
For another assay, the species on record is Homo sapiens. Nature of the assay: Selectivity ratio of IC50 for human recombinant DPP8 to IC50 for human recombinant DPP4.
Assay [2] concerns HeLa. Description: Cytotoxicity against human HeLa cells. It counts as functional. As to conditions: read-out: LC50 (the source's name).
The target of a further assay is Dipeptidyl peptidase 8 (Homo sapiens, UniProt Q6V1X1). Nature of the assay: Inhibition of human recombinant DPP8 assessed as Gly-Pro-pNA chromogenic substrate cleavage for 16 mins preincubated with compound for 10 mins before addition of chromogenic substrate.
Dipeptidyl peptidase 8, sequence (Q6V1X1 whole entry): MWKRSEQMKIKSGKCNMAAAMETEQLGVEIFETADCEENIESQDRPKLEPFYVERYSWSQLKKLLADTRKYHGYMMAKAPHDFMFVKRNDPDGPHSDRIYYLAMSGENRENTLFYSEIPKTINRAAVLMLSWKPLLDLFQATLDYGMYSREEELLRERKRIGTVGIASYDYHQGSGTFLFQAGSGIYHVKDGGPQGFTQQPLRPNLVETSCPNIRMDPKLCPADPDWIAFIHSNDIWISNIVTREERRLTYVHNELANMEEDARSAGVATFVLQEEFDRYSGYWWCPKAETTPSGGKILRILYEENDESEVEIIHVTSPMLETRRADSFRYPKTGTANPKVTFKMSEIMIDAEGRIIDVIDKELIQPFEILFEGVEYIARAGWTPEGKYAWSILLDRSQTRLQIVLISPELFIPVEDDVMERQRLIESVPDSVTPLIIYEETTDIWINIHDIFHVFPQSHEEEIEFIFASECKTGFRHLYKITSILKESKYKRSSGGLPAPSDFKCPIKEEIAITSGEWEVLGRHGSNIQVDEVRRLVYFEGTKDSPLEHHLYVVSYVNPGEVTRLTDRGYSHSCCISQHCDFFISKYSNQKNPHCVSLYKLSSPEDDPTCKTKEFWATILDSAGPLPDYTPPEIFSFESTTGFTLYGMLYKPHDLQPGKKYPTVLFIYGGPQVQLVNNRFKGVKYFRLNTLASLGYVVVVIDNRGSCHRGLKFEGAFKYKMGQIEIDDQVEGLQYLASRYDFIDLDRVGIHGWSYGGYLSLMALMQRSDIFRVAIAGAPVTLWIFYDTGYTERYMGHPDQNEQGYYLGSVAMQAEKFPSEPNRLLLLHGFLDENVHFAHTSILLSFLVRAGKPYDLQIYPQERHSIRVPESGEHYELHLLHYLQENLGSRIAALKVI

Dipeptidyl peptidase 4, sequence (P27487 whole entry): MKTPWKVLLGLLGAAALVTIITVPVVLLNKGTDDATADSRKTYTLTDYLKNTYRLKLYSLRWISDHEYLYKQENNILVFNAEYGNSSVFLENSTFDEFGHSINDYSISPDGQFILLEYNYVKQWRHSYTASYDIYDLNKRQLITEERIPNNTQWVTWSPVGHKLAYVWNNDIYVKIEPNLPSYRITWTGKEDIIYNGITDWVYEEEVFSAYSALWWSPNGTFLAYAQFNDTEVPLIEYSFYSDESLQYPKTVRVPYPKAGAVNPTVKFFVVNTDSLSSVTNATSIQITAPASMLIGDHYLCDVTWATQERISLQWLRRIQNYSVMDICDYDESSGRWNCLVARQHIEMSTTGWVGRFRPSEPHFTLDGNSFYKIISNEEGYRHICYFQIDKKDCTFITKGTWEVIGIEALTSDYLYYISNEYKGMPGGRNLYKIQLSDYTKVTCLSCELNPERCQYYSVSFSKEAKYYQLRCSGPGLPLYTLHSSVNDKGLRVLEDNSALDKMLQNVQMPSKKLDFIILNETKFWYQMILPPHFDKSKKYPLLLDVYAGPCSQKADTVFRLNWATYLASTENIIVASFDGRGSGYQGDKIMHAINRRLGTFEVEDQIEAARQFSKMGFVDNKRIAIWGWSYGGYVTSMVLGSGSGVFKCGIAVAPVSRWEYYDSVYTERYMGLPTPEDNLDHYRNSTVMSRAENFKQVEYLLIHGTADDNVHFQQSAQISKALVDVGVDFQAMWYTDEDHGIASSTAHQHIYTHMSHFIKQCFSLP

The term IC50 denotes the concentration at which inhibition is half-maximal. On to `CNC(=O)c1cc(-c2ccc(Cl)cc2)c(CN)c(C)n1`, for which the IC50 at Dipeptidyl peptidase 4 is under 50 µM.
On to `Cc1nc(C(=O)NCC(N)=O)cc(-c2ccc(Cl)cc2Cl)c1CN`, for which the IC50 on Dipeptidyl peptidase 4 was under 50 µM. For the same compound, in the assay on HeLa [1], the Activity entry was “Not toxic”. Further, in the assay listed under Homo sapiens, the Ratio IC50 is 6600.
As to `Cc1nc(C(=O)N2CCCC2)cc(-c2ccc(Cl)cc2Cl)c1CN`, the Activity result in the assay with HeLa [1] is “Not toxic”. The CC50 in the assay with HeLa [2] is over 10 µM.
For orientation: Ki means the dissociation constant of the complex between target and ligand, obtained from inhibition or displacement. On to `Cc1cc(NC(=O)c2cc(-c3ccc(F)cc3F)c(CN)c(C)n2)no1`, for which, in the assay on HeLa [2], the CC50 is over 10 µM. Besides, on Dipeptidyl peptidase 8, the Ki was 179 µM.
For `Cc1nc(C(=O)O)cc(-c2ccc(F)cc2)c1CN`, at Dipeptidyl peptidase 4, the IC50 was under 50 µM.
Still for that read-out and setting: in the case of `Cc1nc(C(=O)NC2CC2)cc(-c2ccccc2F)c1CN` it was under 50 µM.
In the case of `Cc1nc(C(=O)O)cc(-c2ccc(F)cc2F)c1CN`, at Dipeptidyl peptidase 4, the IC50 is under 50 µM.
The same measure, in the same setting: with `COC(=O)CNC(=O)c1cc(-c2ccc(F)cc2F)c(CN)c(C)n1` the figure was under 50 µM; with `Cc1nc(C(=O)N2CCCC2)cc(-c2ccc(F)cc2F)c1CN`, under 50 µM.
Regarding `Cc1nc(C(=O)NCC#N)cc(-c2ccc(Cl)cc2Cl)c1CN`, the Activity entry in the assay with HeLa [1] was “Not toxic”. For the same compound, the CC50 with HeLa [2] was over 10 µM.
Regarding `Cc1nc(C(=O)N2CCOCC2)cc(-c2ccc(F)cc2F)c1CN`, the IC50 at Dipeptidyl peptidase 4 is under 50 µM.
Regarding `Cc1nc(C(=O)NC2CC2)cc(-c2ccc(F)cc2F)c1CN`, the CC50 in the assay with HeLa [2] is over 10 µM. Also, at Dipeptidyl peptidase 8, the Ki turned out to be 182 µM.
On to `Cc1nc(C(=O)N2CCCC2)cc(-c2ccccc2F)c1CN`, for which, at Dipeptidyl peptidase 4, the 50% inhibitory concentration (IC50) was under 50 µM.
`Cc1nc(C(=O)N2CCCC2)cc(-c2ccc(F)cc2)c1CN`: in the assay on HeLa [2], the CC50 was over 10 µM. Also, the inhibition constant Ki at Dipeptidyl peptidase 8 was found to be 137 µM.
As for `CNC(=O)c1cc(-c2ccc(Cl)cc2Cl)c(CN)c(C)n1`, in the assay on HeLa [1], the Activity result is “Not toxic”. Moreover, the CC50 with HeLa [2] is over 10 µM.
For `Cc1nc(C(N)=O)cc(-c2ccc(Cl)cc2Cl)c1CN`, in that order: “Not toxic” and over 10 µM.
In the case of `Cc1nc(CN)cc(-c2ccc(Cl)cc2)c1C(N)=O`, at Dipeptidyl peptidase 4, the IC50 was over 50 µM.
With `Cc1nc(C(=O)NC2CC2)cc(-c2ccc(F)cc2)c1CN`, in the assay with HeLa [2], the CC50 was over 10 µM. For the same compound, the Ki at Dipeptidyl peptidase 8 was determined as 106 µM.
Consider `Cc1nc(C(=O)NC2CC2)cc(-c2ccc(Cl)cc2Cl)c1CN`, for which, on Dipeptidyl peptidase 4, the IC50 was under 50 µM. Further, the Activity entry with HeLa [1] was “Not toxic”.
As for `Cc1nc(CN)cc(-c2ccccc2F)c1C(N)=O`, the half-maximal inhibitory concentration (IC50) at Dipeptidyl peptidase 4 is over 50 µM.
On the same count and under the same terms, in the case of `Cc1nc(C(=O)N2CCOCC2)cc(-c2ccc(F)cc2)c1CN` it was under 50 µM.
In the case of `Cc1nc(C(=O)N2CCOCC2)cc(-c2ccc(Cl)cc2Cl)c1CN`, the 50% inhibitory concentration (IC50) at Dipeptidyl peptidase 4 is under 50 µM. Besides, the Activity result in the assay with HeLa [1] is “Not toxic”.
Take `Cc1nc(C(N)=O)cc(-c2ccccc2F)c1CN`: on Dipeptidyl peptidase 4, the IC50 was under 50 µM.
